Assay results from patent USRE47493E1, “Substituted bicyclic dihydropyrimidinones and their use as inhibitors of neutrophil elastase activity” (Boehringer Ingelheim International GmbH, priority 2014, dated 2019).
Converted amounts (≈) assume the structure as drawn. Blank lines part the entries; values can stand above or below the compound they belong to.

What was measured:
[1] = Assay for Determination of Aqueous Solubility; assay type: physicochemical; conditions: McIlvaine buffer pH 6.8, 2.5% DMSO; for Aqueous solubility: 24 h; for solubility at 24 h: McIlvaine buffer pH 6.8 with 2.5% DMSO, aqueous buffer, kinetic from dmso stock
Method: Assay for Determination of Aqueous Solubility
The aqueous solubility of a compound is determined by comparing the amount dissolved in aqueous buffer (containing 2.5% DMSO) to the amount dissolved in an acetonitrile/water (1/1) solution. Starting from a 10 mM DMSO stock solution, aliquots are diluted with acetonitrile/water (1/1) and Mcllvaine buffer pH 6.8, respectively. After 24 h of shaking, the solutions or suspensions are filtered and analyzed by LC-UV. The amount dissolved in buffer is compared to the amount dissolved in the acetonitrile/water (1/1) solution. Solubility is measured from 0.001 to 0.125 mg/ml at a DMSO concentration of 2.5%. If more than 90% of the compound is dissolved in buffer, the value is marked with “>”.

[2] = Assay for the Determination of Metabolic Stability with Human Liver Microsomes; assay type: in vitro ADME; conditions: pooled human liver microsomes, 37° C., NADPH; for half-life at 1 nM: pH 7.6, read-out: t1/2 INVITRO
Method: Assay for the Determination of Metabolic Stability with Human Liver Microsomes
The metabolic degradation of the test compound is assayed at 37° C. with pooled human liver microsomes. The final incubation volume of […] per time point contains TRIS buffer pH 7.6 (0.1 M), magnesium chloride (5 mM), microsomal protein (1 mg/ml) and the test compound at a final concentration of […]. Following a short preincubation period at 37° C., the reactions are initiated by addition of beta-nicotinamide adenine dinucleotide phosphate, reduced form (NADPH, 1 mM) and terminated by transfering an aliquot into acetonitrile after different time points. Additionally, the NADPH-independent degradation is monitored in incubations without NADPH, terminated at the last time point. The rol remaining test compound after NADPH independent incubation is reflected by the parameter c(control) (metabolic stability). The quenched incubations are pelleted by centrifugation (10′000 g, 5 min) An aliquot of the supernatant is assayed by LC-MS/MS for the amount of parent compound.
The half-life (t1/2 INVITRO) is determined by the slope of the semilogarithmic plot of the concentration-time profile. The intrinsic clearance (CL_[…]) is calculated by considering the amount of protein in the incubation: CL_[…][μl/min/mg protein]=(ln 2/(half-life [min]*protein content [mg/ml]))*1′000.
The half-life (t1/2 INVITRO) values of selected compounds in the metabolic stability assay described above are listed in Table 15.

[3] = Assay for the Determination of Metabolic Stability with Human Hepatocytes; assay type: in vitro ADME; conditions: scaled with well stirred model
Method: Assay for the Determination of Metabolic Stability with Human Hepatocytes
The metabolic degradation of the test compound is assayed in a human hepatocyte suspension. Human hepatocytes (typically cryopreserved) are incubated in an appropriate buffer system (e.g. Dulbecco's modified eagle medium plus 3.5 μg glucagon/500 mL, 2.5 mg insulin/500 mL and 3.75 mg/500 mL hydrocortison) containing 5% species serum. Following a (typically) […] preincubation in an incubator (37° C., 10% CO2), 5 μl of test compound solution (80 μM; from 2 mM stock solution in DMSO diluted 1:25 with medium) are added into 395 μl hepatocyte suspension (cell density in the range 0.25-5*10^6 cells/mL, typically 1*10^6 cells/mL; final concentration of test compound 1 μM, final DMSO concentration […]). The cells are incubated for six hours (incubator, orbital shaker) and samples (25 μl) are taken at 0, 0.5, 1, 2, 4 and 6 hours. Samples are transferred into acetonitrile and pelleted by centrifugation (5 min). The supernatant is transferred to a new 96-deepwell plate, evaporated under nitrogen and resuspended. The decline of parent compound is analyzed by LC-MS/MS.
The intrinsic clearance CL_[…] is calculated as follows: CL_[…]=Dose/AUC=(C0/CD)/(AUD+clast/k)*1′000/60 (C0: initial concentration in the incubation [μM], CD: cell density of vital cells [10^6 cells/mL], AUD: area under the data [μM*h], clast: concentration of last data point [μM], k: slope of the regression line for parent decline [h^−1])
The calculated in vitro hepatic intrinsic clearance can be scaled up to the intrinsic in vivo hepatic clearance and used to predict hepatic in vivo blood clearance (CL) by the use of a is liver model (well stirred model): CL_[…]_INVIVO [ml/min/kg]=(CL_[…] [μL/min/10^6 cells]* hepatocellularity[10^6 cells/g liver]*liver factor[g/kg bodyweight])/1′000 CL[ml/min/kg]=CL_[…]_INVIVO [ml/min/kg]*hepatic blood flow [ml/min/kg]/(CL_[…]_INVIVO [ml/min/kg]+hepatic blood flow [ml/min/kg]) Qh[%]=CL[ml/min/kg]/hepatic blood flow[ml/min/kg]) (Hepatocellularity, human: 120*10^6 cells/g liver; lver factor, human: 25.7 g/kg bodyweight; blood flow, human: 21 ml/(min*kg))
The predicted human hepatic in vivo blood clearance (CL) of selected compounds in the metabolic stability assay described above are listed in Table 16.

[4] = Assay for Determination of Drug Transport Across Human CACO-2 Cells; assay type: in vitro ADME; conditions: human
Text: Assay for Determination of Drug Transport Across Human CACO-2 Cells
The assay provides information on the potential of a compound to pass the cell membrane, on the extent of oral absorption as well as on whether the compound is actively transported by uptake and/or efflux transporters. For the measurement of permeability across polarized, confluent human cancer colon carcinoma cells 2 (Caco-2) cell monolayers grown on permeable filter supports are used as the in vitro absorption model. Apparent permeability coefficients (PE) of the compounds across the Caco-2 monolayers are measured (pH 7.2, 37° C.) in apical-to-basal (AB) (absorptive) and basal-to-apical (BA) (secretory) transport direction. AB permeability (PEAB) represents drug absorption from the intestine into the blood and BA permeability (PEBA) drug secretion from the blood back into the intestine via both passive permeability as well as active transport mechanisms mediated by efflux and uptake transporters that are expressed on the Caco-2 cells. The compounds are assigned to permeability/absorption classes by comparison of the AB permeabilities with the AB permeabilities of reference compounds with known in vitro permeability and oral absorption in the human. Identical or similar permeabilities in both transport directions indicate passive permeation, vectorial permeability points to additional active transport mechanisms. […] Active transport is concentration-dependently saturable.
Caco-2 cells (1−2*10^5 cells/cm^2 area) are seeded on filter inserts (Costar transwell polycarbonate or PET filters, […] pore size) and cultured (DMEM) for 10 to 25 days. Compounds are dissolved in appropriate solvent (like DMSO, 1-20 mM stock solutions). Stock solutions are diluted with HTP-4 buffer (128.13 mM NaCl, 5.36 mM KCl, 1 mM MgSO4, 1.8 mM CaCl2, 4.17 mM NaHCO3, 1.19 mM Na2HPO4×7H2O, 0.41 mM NaH2PO4×H2O, 15 mM HEPES, 20 mM glucose, pH 7.2) to prepare the transport solutions (typically […] compound, final DMSO <=0.5%). The transport solution (TL) is applied to the apical or basolateral donor side for measuring A-B or B-A permeability (3 filter replicates), respectively. The receiver side contains HTP-4 buffer supplemented with 2% BSA. Samples are collected at the start and end of experiment from the donor and at various time intervals for up to 2 hours also from the receiver side for concentration measurement by LC-MS/MS or scintillation counting. Sampled receiver volumes are is replaced with fresh receiver solution.
The apparent permeability coefficients (PEAB and PEBA) and efflux ratios (PEBA/PEAB) of selected compounds in the Caco-2 drug transport assay described above are listed in Table 17.

[5] = target: Human neutrophil elastase (Homo sapiens (Human), UniProt P08246); assay: Human Neutrophil Elastase Assay; assay type: biochemical; conditions: human neutrophil elastase, substrate MeOSuc-Ala-Ala-Pro-Val-AMC, pH 7.5; read-out: IC50
Human neutrophil elastase, sequence (P08246 30-267): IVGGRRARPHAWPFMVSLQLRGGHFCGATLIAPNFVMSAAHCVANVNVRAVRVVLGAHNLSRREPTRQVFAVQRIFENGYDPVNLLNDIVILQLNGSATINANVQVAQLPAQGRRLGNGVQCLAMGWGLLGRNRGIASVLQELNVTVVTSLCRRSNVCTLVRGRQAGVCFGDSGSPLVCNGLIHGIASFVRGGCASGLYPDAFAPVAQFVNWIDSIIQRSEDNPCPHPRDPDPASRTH
Method: Human Neutrophil Elastase Assay
Materials: Human neutrophil elastase was purchased from Calbiochem (Cat.No.: 324681) and the elastase substrate MeOSuc-Ala-Ala-Pro-Val-AMC from Bachem (Cat.No.: I-1270). All other materials were of the highest grade commercially available.
The following buffers were used: Compound buffer: 100 mM Tris, 500 mM NaCl, adjusted to pH 7.5; Assay buffer: 100 mM Tris, 500 mM NaCl, adjusted to pH 7.5, containing 0.01% BSA.
Assay conditions: Test compounds were prediluted in DMSO and subsequently in compound buffer (5% DMSO final). 5 μL of these compound dilutions were mixed with 10 μl Neutrophil elastase (9 ng/ml in assay buffer) in a black 384 well OptiPlate (Perkin Elmer, Cat No.: 6007270) and incubated for 15 min at room temperature. Subsequently 10 μL substrate solution in assay buffer were added (250 nM final concentration) and the plates were incubated for 60 min at room temperature. After inactivation of the enzyme, fluorescence intensities were measured at 380 nm excitation and 460 nm emission wavelengths.
Each plate contains wells with a high value control (DMSO+enzyme+substrate) and wells with a low value control (DMSO+inactivated enzyme+substrate). IC50 values were estimated using a sigmoidal concentration response curve with variable slope. Means of low values were taken as 0%, means of high values as 100%.

Aqueous solubility [1]: 6 µg/mL | t1/2 INVITRO [2]: >130 min
SMILES: N#Cc1ccc(C2C3=C(CCCC3=O)N(c3cccc(C(F)(F)F)c3)C(=O)N2C(=O)NCCO)cc1 (stereo not shown) [Example 39.3]

CL (predicted human hepatic in vivo blood clearance) [3]: 0 mL/min/kg | Aqueous solubility [1]: 9 µg/mL | t1/2 INVITRO [2]: >130 min
SMILES: CS(=O)(=O)CCNC(=O)N1C(=O)N(c2cccc(C(F)(F)F)c2)C2=C(C(=O)CCC2)C1c1ccc(C#N)cc1 (stereo not shown) [Example 39.19]

CL (predicted human hepatic in vivo blood clearance) [3]: 3 mL/min/kg | efflux ratio at 2 h, 10 nM ([4]; pH 7.2, Caco-2, PEBA/PEAB): 1.6 | Papp A→B at 10 nM ([4]; Caco-2, apical-to-basal, pH 7.2, 37° C., read-out: PEAB): 60 ×10⁻⁶ cm/s | Papp B→A at 10 nM ([4]; Caco-2, basal-to-apical, pH 7.2, 37° C., read-out: PEBA): 98 ×10⁻⁶ cm/s | half-life at 1 nM [2]: > 130 min
SMILES: CN1C(=O)N(c2cccc(C(F)(F)F)c2)C2=C(C(=O)CCC2)[C@H]1c1ccc(C#N)cc1S(C)(=O)=O [Example 48, (S)-4-(3-Methyl-2,5-dioxo-1-(3-(trifluoromethyl)phenyl)-1,2,3,4,5,6,7,8-octahydroquinazolin-4-yl)-3-(methylsulfonyl)benzonitrile]

IC50 [5]: 1.3 nM
SMILES: CN(CCO)C(=O)CN1C(=O)N(c2cccc(C(F)(F)F)c2)C2=C(C(=O)CCC2)C1c1ccc(C#N)cc1S(C)(=O)=O (stereo not shown) [Example 62.3]

IC50 [5]: < 1 nM
SMILES: CS(=O)(=O)c1cc(C#N)ccc1C1C2=C(CCCC2=O)N(c2cccc(C(F)(F)F)c2)C(=O)N1CC(=O)N1CC2CC2C1 (stereo not shown) [Example 62.4]

IC50 [5]: < 1 nM
SMILES: CS(=O)(=O)c1cc(C#N)ccc1C1C2=C(CCCC2=O)N(c2cccc(C(F)(F)F)c2)C(=O)N1CC(=O)N1CCC(F)C1 (stereo not shown) [Example 62.6]

IC50 [5]: < 1 nM
SMILES: COCCN(C)C(=O)CN1C(=O)N(c2cccc(C(F)(F)F)c2)C2=C(C(=O)CCC2)C1c1ccc(C#N)cc1S(C)(=O)=O (stereo not shown) [Example 62.7]

IC50 [5]: 11.6 nM
SMILES: COC1CCN(C(=O)CN2C(=O)N(c3cccc(C(F)(F)F)c3)C3=C(C(=O)CCC3)C2c2ccc(C#N)cc2S(C)(=O)=O)CC1 (stereo not shown) [Example 62.8]

IC50 [5]: 1.4 nM
SMILES: CN(Cc1cnn(C)c1)C(=O)CN1C(=O)N(c2cccc(C(F)(F)F)c2)C2=C(C(=O)CCC2)C1c1ccc(C#N)cc1S(C)(=O)=O (stereo not shown) [Example 62.9]

CL (predicted human hepatic in vivo blood clearance) [3]: 0 mL/min/kg | solubility at 24 h [1]: 57 µg/mL (≈ 100 µM) | half-life at 1 nM [2]: > 130 min
SMILES: CS(=O)(=O)c1cc(C#N)ccc1[C@@H]1C2=C(CCCC2=O)N(c2cccc(C(F)(F)F)c2)C(=O)N1S(C)(=O)=O [Example 68, (S)-3-(Methylsulfonyl)-4-(3-(methylsulfonyl)-2,5-dioxo-1-(3-(trifluoromethyl)phenyl)-1,2,3,4,5,6,7,8-octahydroquinazolin-4-yl)benzonitrile]

IC50 [5]: < 1 nM
SMILES: N#Cc1ccc(C2C3=C(CCCC3=O)N(c3cccc(C(F)(F)F)c3)C(=O)N2C(=O)N[C@H]2CCC[C@@H]2O)cc1 (stereo partly shown) [Example 70.11]

IC50 [5]: 1.1 nM
SMILES: N#Cc1ccc(C2C3=C(CCCC3=O)N(c3cccc(C(F)(F)F)c3)C(=O)N2C(=O)N[C@H]2CCCC[C@@H]2O)cc1 (stereo partly shown) [Example 70.17]

solubility at 24 h [1]: 79 µg/mL (≈ 148 µM) | half-life at 1 nM [2]: > 130 min
SMILES: CS(=O)(=O)c1cc(C#N)ccc1[C@@H]1C2=C(CCCC2=O)N(c2cccc(C(F)(F)F)c2)C(=O)N1C(N)=O [Example 75, (S)-4-(4-Cyano-2-(methylsulfonyl)phenyl)-2,5-dioxo-1-(3-(trifluoromethyl)phenyl)-1,2,5,6,7,8-hexahydroquinazoline-3(4H)-carboxamide]

IC50 [5]: < 1 nM
SMILES: CC(C)(CO)NC(=O)N1C(=O)N(c2cccc(C(F)(F)F)c2)C2=C(C(=O)CCC2)[C@H]1c1ccc(C#N)cc1S(C)(=O)=O [Example 75.13]

IC50 [5]: < 1 nM
SMILES: CC(C)(O)CCNC(=O)N1C(=O)N(c2cccc(C(F)(F)F)c2)C2=C(C(=O)CCC2)[C@H]1c1ccc(C#N)cc1S(C)(=O)=O [Example 75.19]
